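Five compound concentrations were applied to cells in 96-well plates for 48 hours; endpoints were derived by simple linear interpolation of the resulting dose-response curve. Definition used: TGI = concentration required for complete inhibition of growth.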 Activity calls are given as the source filed them. Cut-off read from the data, not from the text of the source: active = GI50 below about 0.43 µM; inactive = the rest.
Legend:
Test in all cases: inhibition of tumour cell growth, NCI panel, 48 h
[1] = tested on: SW-620 colon
[2] = tested on: OVCAR-5 ovarian
[3] = tested on: SK-MEL-5 melanoma
[4] = tested on: SK-MEL-28 melanoma
[5] = tested on: MOLT-4 leukemia
[6] = tested on: SK-MEL-2 melanoma
[7] = tested on: TK-10 renal
[8] = tested on: K-562 leukemia
[9] = tested on: OVCAR-4 ovarian
[10] = tested on: HCT-116 colon
[11] = tested on: DMS 273 small cell lung
[12] = tested on: KM12 colon
[13] = tested on: NCI-H522 lung
[14] = tested on: HOP-92 NSCLC
[15] = tested on: IGROV1 ovarian
[16] = tested on: LOX IMVI melanoma
[17] = tested on: SR leukemia
[18] = tested on: DMS 114 small cell lung
[19] = tested on: UACC-62 melanoma
[20] = tested on: SNB-19 CNS
[21] = tested on: CCRF-CEM leukemia
[22] = tested on: OVCAR-3 ovarian
[23] = tested on: U251 CNS
[24] = tested on: NCI-H23 lung
[25] = tested on: HCT-15 colon
[26] = tested on: HOP-18 NSCLC
[27] = tested on: HCC-2998 colon
[28] = tested on: HL-60(TB) leukemia
[29] = tested on: A498 renal
[30] = tested on: ACHN renal
[31] = tested on: OVCAR-8 ovarian
[32] = tested on: HT29 colon
[33] = tested on: HOP-62 NSCLC
[34] = tested on: RXF 393 renal
[35] = tested on: SF-539 CNS
[36] = tested on: SNB-75 CNS
[37] = tested on: SN12C renal
[38] = tested on: COLO 205 colon
[39] = tested on: M14 melanoma
[40] = tested on: RPMI-8226 leukemia
[41] = tested on: EKVX NSCLC
[42] = tested on: NCI-H460 lung
[43] = tested on: A549 NSCLC
[44] = tested on: KM20L2 colon
[45] = tested on: DLD-1 colon
[46] = tested on: SK-OV-3 ovarian
[47] = tested on: NCI-H226 lung
[48] = tested on: UACC-257 melanoma
[49] = tested on: UO-31 renal
[50] = tested on: XF 498 CNS
[51] = tested on: SF-295 CNS
[52] = tested on: SF-268 CNS
[53] = tested on: CAKI-1 renal
[54] = tested on: 786-0 renal
[55] = tested on: M19-MEL melanoma
[56] = tested on: SNB-78 CNS
[57] = tested on: MALME-3M melanoma
[58] = tested on: LXFL 529 NSCLC

SMILES: C/C=C/CC(S(=O)(=O)c1ccccc1)S(=O)(=O)c1ccccc1
- TGI [1]: > 100 µM
- TGI [2]: > 100 µM
- TGI [3]: > 100 µM
- TGI [4]: > 100 µM
- TGI [5]: > 100 µM
- TGI [6]: > 100 µM
- TGI [7]: > 100 µM
- TGI [8]: > 100 µM
- TGI [9]: > 100 µM
- TGI [10]: > 100 µM
- TGI [11]: > 100 µM
- TGI [12]: > 100 µM
- TGI [13]: > 100 µM
- TGI [14]: > 100 µM
- TGI [15]: > 100 µM
- TGI [16]: > 100 µM
- TGI [17]: > 100 µM
- TGI [18]: 81.8 µM
- TGI [19]: > 100 µM
- TGI [20]: > 100 µM
- TGI [21]: > 100 µM
- TGI [22]: > 100 µM
- TGI [23]: > 100 µM
- TGI [24]: > 100 µM
- TGI [25]: > 100 µM
- TGI [26]: > 100 µM
- TGI [27]: > 100 µM
- TGI [28]: > 100 µM
- TGI [29]: > 100 µM
- TGI [30]: > 100 µM
- TGI [31]: > 100 µM
- TGI [32]: > 100 µM
- TGI [33]: > 100 µM
- TGI [34]: > 100 µM
- TGI [35]: > 100 µM
- TGI [36]: > 100 µM
- TGI [37]: > 100 µM
- TGI [38]: > 100 µM
- TGI [39]: > 100 µM
- TGI [40]: > 100 µM
- TGI [41]: > 100 µM
- TGI [42]: > 100 µM
- TGI [43]: > 100 µM
- TGI [44]: > 100 µM
- TGI [45]: > 100 µM
- TGI [46]: > 100 µM
- TGI [47]: > 100 µM
- TGI [48]: > 100 µM
- TGI [49]: > 100 µM
- TGI [50]: > 100 µM
- TGI [51]: > 100 µM

SMILES: C=C1C(=O)O[C@@H]2C1C(OC(C)CCC)[C@@H](O)[C@@H](C)C(O)C1O[C@]1(C)[C@H]2O (stereo partly drawn)
- outcome [1]: inactive
- outcome [2]: inactive
- outcome [5]: inactive
- outcome [6]: inactive
- outcome [8]: inactive
- outcome [9]: inactive
- outcome [11]: inactive
- outcome [12]: inactive
- outcome [52]: inactive
- outcome [13]: inactive
- outcome [14]: inactive
- outcome [15]: inactive
- outcome [16]: inactive
- outcome [17]: inactive
- outcome [18]: inactive
- outcome [19]: inactive
- outcome [20]: inactive
- outcome [21]: inactive
- outcome [22]: inactive
- outcome [23]: inactive
- outcome [24]: inactive
- outcome [53]: inactive
- outcome [25]: inactive
- outcome [27]: inactive
- outcome [28]: inactive
- outcome [54]: inactive
- outcome [30]: inactive
- outcome [55]: inactive
- outcome [31]: inactive
- outcome [32]: inactive
- outcome [33]: inactive
- outcome [34]: inactive
- outcome [35]: inactive
- outcome [36]: inactive
- outcome [37]: inactive
- outcome [38]: inactive
- outcome [39]: inactive
- outcome [40]: inactive
- outcome [41]: inactive
- outcome [42]: inactive
- outcome [43]: inactive
- outcome [44]: inactive
- outcome [45]: inactive
- outcome [46]: inactive
- outcome [56]: inactive
- outcome [47]: inactive
- outcome [57]: inactive
- outcome [48]: inactive
- outcome [58]: inactive
- outcome [49]: inactive
- outcome [50]: inactive
- outcome [51]: inactive

— PubChem BioAssay (NCI)
